Here are results for 11 compounds from US9550756B2, “Pyridazinone compounds as phosphodiesterase inhibitors and methods of treating disorders” (Takeda Pharmaceutical Company Limited, priority 2009, dated 2017).

Tested on in one data set: not given
Test: not given
Details: not given
Regarding `O=c1ccn(-c2cccc(C(F)(F)F)c2)nc1-c1ccnn1-c1ccc(Cl)cc1` [Example 3, 3-[1-(4-Chlorophenyl)-1H-pyrazol-5-yl]-1-[3-(trifluoromethyl)phenyl]pyridazin-4(1H)-one], the melting point (as a rule, the temperature of the solid-liquid transition) fell in the range of 166 to 167 °C.

As for `O=c1ccn(-c2ccncc2)nc1-c1ccnn1-c1ccccc1` [Example 31, 3-(1-Phenyl-1H-pyrazol-5-yl)-1-pyridin-4-ylpyridazin-4(1H)-one], the melting point was in the range of 202 to 203 °C.

Compound `CC(C)n1nccc1-c1nn(-c2cccc(C(F)(F)F)c2)ccc1=O` [Example 33, 3-[1-(1-Methylethyl)-1H-pyrazol-5-yl]-1-[3-(trifluoromethyl)phenyl]pyridazin-4(1H)-one] showed a melting point of 183 to 184 °C.

`CC(C)Cn1nccc1-c1nn(-c2cccc(C(F)(F)F)c2)ccc1=O` [Example 34, 3-[1-(2-Methylpropyl)-1H-pyrazol-5-yl]-1-[3-(trifluoromethyl)phenyl]pyridazin-4(1H)-one] yielded a melting point of 120 to 121 °C.

Compound `O=c1ccn(-c2cccc(C(F)(F)F)c2)nc1-c1ccnn1-c1ccccn1` [Example 35, 3-(1-Pyridin-2-yl-1H-pyrazol-5-yl)-1-[3-(trifluoromethyl)phenyl]pyridazin-4(1H)-one] yielded a melting point of 189 to 190 °C.

`O=c1ccn(-c2cccc(Oc3nc4ccccc4[nH]3)c2)nc1-c1ccnn1-c1ccccc1` [Example 37, 1-[3-(1H-Benzimidazol-2-yloxy)phenyl]-3-(1-phenyl-1H-pyrazol-5-yl)pyridazin-4(1H)-one] had a melting point of 149 to 150 °C.

Consider `O=c1ccn(-c2cccc(C(F)(F)F)c2)nc1-c1ncnn1-c1ccccc1` [Example 42, 3-(1-Phenyl-1H-1,2,4-triazol-5-yl)-1-[3-(trifluoromethyl)phenyl]pyridazin-4(1H)-one], for which the melting point is 167 to 168 °C.

The compound `O=c1c(OC(F)F)cn(-c2cccc(C(F)(F)F)c2)nc1-c1ccnn1-c1ccccc1` [Example 62, 5-(Difluoromethoxy)-3-(1-phenyl-1H-pyrazol-5-yl)-1-[3-(trifluoromethyl)phenyl]pyridazin-4(1H)-one] came in with a melting point of 132 to 134 °C.

`O=c1c(O)cn(-c2ccccc2F)nc1-c1ccnn1-c1ccccc1` [Example 63, 1-(2-Fluorophenyl)-5-hydroxy-3-(1-phenyl-1H-pyrazol-5-yl)pyridazin-4(1H)-one] gave a melting point of 218 to 220 °C.

Regarding `CC(C)n1cc(-c2nn(-c3cccc(C(F)(F)F)c3)ccc2=O)c(-c2ccccc2)n1` [Example 77, 3-[1-(1-Methylethyl)-3-phenyl-1H-pyrazol-4-yl]-1-[3-(trifluoromethyl)phenyl]pyridazin-4(1H)-one], the melting point lay in the range of 138 to 140 °C.

In another data set the test system is Male ICR mice. Briefly: Improvement of MK-801-induced prepulse inhibition (PPI) deficits. In kind it is in vivo. The note with it: 0.3 mg/kg, MK-801 0.3 mg/kg s.c., FIG. 3. The source says:
Male ICR mice were supplied by CLEA Japan, Inc (Japan). After arrival to the vivarium, animals were allowed a minimum of 1 week for acclimation. They were housed under a 12:12-h light/dark cycle in a temperature- and humidity-controlled laboratory and allowed food and water ad libitum. The care and use of the animals and the experimental protocols used in this research were approved by the Experimental Animal Care and Use Committee of Takeda Pharmaceutical Company, Ltd (Osaka, Japan).
The compounds were suspended in 0.5% methylcellulose in saline or distilled water, and administered by intraperitoneally (i.p.) or orally (p.o.), respectively. Methamphetamine (Dainippon Sumitomo Pharma Co., Ltd.) and MK-801 (Sigma-Aldrich, St Louis, Mo.) were dissolved in saline, and administered subcutaneously (s.c.). […]
PPI is a measure of sensorimotor gating and is one of a few neuropsychological measures in which humans and rodents can be evaluated in a similar fashion (Psychopharmacology (Berl) 2001, vol. 156: 117-154). We evaluated whether compound could reverse PPI deficits induced by MK-801 using male ICR mice. […] Placement of mice inside the cylinders allowed the whole-body startle responses induced by the acoustic stimuli to be measured via the transduction of movement into analog signals by a piezoelectric unit attached to the platform. […]
For `Cc1nc2n(c(=O)c1CCN1CCC(c3noc4cc(F)ccc34)CC1)CCCC2` [Risperidone], the “MK-801-induced PPI deficits” value is “significantly reversed”.
